From ChEMBL document CHEMBL1201862, “PubChem BioAssay data set” (2004)
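Tested at 5 concentrations; 48 h exposure; 96-well plates; endpoints linearly interpolated, else capped at highest concentration. GI50: concentration for 50% inhibition of growth.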 Activity calls are given as the source filed them. Rule as the data show it: active = GI50 up to about 1.1 µM and inactive = higher.

Experiments:
Test in all cases: NCI anticancer screen, dose series, 48 h
A549 = test system: A549
ACHN = test system: ACHN
EKVX = test system: EKVX
HCC 2998 = test system: HCC 2998
HL-60 = test system: HL-60
HOP-92 = test system: HOP-92
K562 = test system: K562
LOX IMVI = test system: LOX IMVI
NCI-H460 = test system: NCI-H460
NCI-H522 = test system: NCI-H522
OVCAR-5 = test system: OVCAR-5
OVCAR-8 = test system: OVCAR-8
SK-MEL-2 = test system: SK-MEL-2
SK-OV-3 = test system: SK-OV-3
TK-10 = test system: TK-10
UACC-257 = test system: UACC-257
UO-31 = test system: UO-31
SK-MEL-28 = test system: SK-MEL-28

## Fc1cccc(Cl)c1C1SCc2nc3ccccc3n21 (stereo unspecified)
A549
  GI50: 37.2 µM (inactive)
ACHN
  GI50: 39.2 µM (inactive)
EKVX
  GI50: 26.4 µM (inactive)
HCC 2998
  GI50: 31.7 µM (inactive)
HL-60
  GI50: 11 µM (inactive)
HOP-92
  GI50: 6.62 µM (inactive)
K562
  GI50: 25.8 µM (inactive)
LOX IMVI
  GI50: 17.3 µM (inactive)
NCI-H460
  GI50: 33 µM (inactive)
NCI-H522
  GI50: 17.3 µM (inactive)
OVCAR-5
  GI50: 31.8 µM (inactive)
OVCAR-8
  GI50: 38.1 µM (inactive)
SK-MEL-2
  GI50: 21.1 µM (inactive)
SK-OV-3
  GI50: 22.9 µM (inactive)
TK-10
  GI50: 57 µM (inactive)
UACC-257
  GI50: 21.9 µM (inactive)
UO-31
  GI50: 27.9 µM (inactive)

## CCCCN(CCCC)C(=O)C(=O)C(C(=O)c1ccc(OC)cc1)c1ccc(OC)cc1 (stereo unspecified)
A549
  GI50: > 100 µM (inactive)
ACHN
  GI50: > 100 µM (inactive)
EKVX
  GI50: > 100 µM (inactive)
HCC 2998
  GI50: > 100 µM (inactive)
HL-60
  GI50: > 100 µM (inactive)
HOP-92
  GI50: 27.4 µM (inactive)
K562
  GI50: > 100 µM (inactive)
LOX IMVI
  GI50: > 100 µM (inactive)
NCI-H460
  GI50: > 100 µM (inactive)
OVCAR-5
  GI50: > 100 µM (inactive)
OVCAR-8
  GI50: > 100 µM (inactive)
SK-MEL-28
  GI50: > 100 µM (inactive)
SK-MEL-2
  GI50: > 100 µM (inactive)
SK-OV-3
  GI50: > 100 µM (inactive)
TK-10
  GI50: > 100 µM (inactive)
UACC-257
  GI50: > 100 µM (inactive)
UO-31
  GI50: > 100 µM (inactive)

## COC(=O)C(=O)C(C(=O)C(=O)Nc1ccc([N+](=O)[O-])cc1[N+](=O)[O-])c1nc2ccc([N+](=O)[O-])cc2nc1O (stereo unspecified)
A549
  GI50: > 100 µM (inactive)
ACHN
  GI50: > 100 µM (inactive)
EKVX
  GI50: 38.2 µM (inactive)
HCC 2998
  GI50: > 100 µM (inactive)
HL-60
  GI50: > 100 µM (inactive)
HOP-92
  GI50: > 100 µM (inactive)
K562
  GI50: > 100 µM (inactive)
LOX IMVI
  GI50: > 100 µM (inactive)
NCI-H460
  GI50: > 100 µM (inactive)
NCI-H522
  GI50: 50.1 µM (inactive)
OVCAR-5
  GI50: > 100 µM (inactive)
OVCAR-8
  GI50: > 100 µM (inactive)
SK-OV-3
  GI50: > 100 µM (inactive)
TK-10
  GI50: > 100 µM (inactive)
UACC-257
  GI50: > 100 µM (inactive)
UO-31
  GI50: 53 µM (inactive)

## COc1ccc(Sc2ccccc2[N+](=O)[O-])cc1
A549
  GI50: 15.2 µM (inactive)
EKVX
  GI50: 37 µM (inactive)
HCC 2998
  GI50: 8.36 µM (inactive)
HL-60
  GI50: 3.78 µM (inactive)
HOP-92
  GI50: 18.7 µM (inactive)
K562
  GI50: 3.32 µM (inactive)
LOX IMVI
  GI50: 12.9 µM (inactive)
NCI-H460
  GI50: 16.8 µM (inactive)
OVCAR-5
  GI50: > 100 µM (inactive)
OVCAR-8
  GI50: 30.8 µM (inactive)
SK-MEL-28
  GI50: 5.28 µM (inactive)
SK-MEL-2
  GI50: 32.1 µM (inactive)
SK-OV-3
  GI50: 39.1 µM (inactive)
TK-10
  GI50: 34.8 µM (inactive)
UACC-257
  GI50: 36.9 µM (inactive)
UO-31
  GI50: 23.4 µM (inactive)

## O=C(CCC(=O)Nc1ccc(Cl)c(Cl)c1)CC(=O)c1ccc2ccccc2c1
A549
  GI50: > 100 µM (inactive)
ACHN
  GI50: 39.8 µM (inactive)
EKVX
  GI50: > 100 µM (inactive)
HCC 2998
  GI50: > 100 µM (inactive)
HL-60
  GI50: > 100 µM (inactive)
HOP-92
  GI50: > 100 µM (inactive)
K562
  GI50: 17.1 µM (inactive)
LOX IMVI
  GI50: > 100 µM (inactive)
NCI-H460
  GI50: > 100 µM (inactive)
NCI-H522
  GI50: 89.5 µM (inactive)
OVCAR-5
  GI50: > 100 µM (inactive)
OVCAR-8
  GI50: > 100 µM (inactive)
SK-MEL-28
  GI50: > 100 µM (inactive)
SK-MEL-2
  GI50: 41.8 µM (inactive)
TK-10
  GI50: > 100 µM (inactive)
UACC-257
  GI50: > 100 µM (inactive)
UO-31
  GI50: > 100 µM (inactive)

## C/C(=N\NC(=O)C[N+](C)(C)C)c1sc(-c2cccnc2)nc1C
A549
  GI50: > 100 µM (inactive)
ACHN
  GI50: > 100 µM (inactive)
EKVX
  GI50: > 100 µM (inactive)
HCC 2998
  GI50: > 100 µM (inactive)
HL-60
  GI50: > 100 µM (inactive)
HOP-92
  GI50: 24.9 µM (inactive)
K562
  GI50: > 100 µM (inactive)
LOX IMVI
  GI50: > 100 µM (inactive)
NCI-H460
  GI50: > 100 µM (inactive)
NCI-H522
  GI50: 42.7 µM (inactive)
OVCAR-5
  GI50: > 100 µM (inactive)
OVCAR-8
  GI50: > 100 µM (inactive)
SK-MEL-28
  GI50: > 100 µM (inactive)
SK-MEL-2
  GI50: > 100 µM (inactive)
SK-OV-3
  GI50: > 100 µM (inactive)
TK-10
  GI50: > 100 µM (inactive)
UACC-257
  GI50: > 100 µM (inactive)
UO-31
  GI50: 41.2 µM (inactive)

## N=C(NC(=N)Nc1ccc(S(=O)(=O)Nc2cnc3ccccc3n2)cc1)Nc1ccc(Br)cc1
A549
  GI50: > 100 µM (inactive)
ACHN
  GI50: > 100 µM (inactive)
EKVX
  GI50: > 100 µM (inactive)
HCC 2998
  GI50: > 100 µM (inactive)
HOP-92
  GI50: > 100 µM (inactive)
K562
  GI50: > 100 µM (inactive)
LOX IMVI
  GI50: > 100 µM (inactive)
NCI-H460
  GI50: > 100 µM (inactive)
NCI-H522
  GI50: > 100 µM (inactive)
OVCAR-5
  GI50: > 100 µM (inactive)
OVCAR-8
  GI50: > 100 µM (inactive)
SK-MEL-28
  GI50: > 100 µM (inactive)
SK-MEL-2
  GI50: > 100 µM (inactive)
SK-OV-3
  GI50: > 100 µM (inactive)
TK-10
  GI50: > 100 µM (inactive)
UACC-257
  GI50: > 100 µM (inactive)
UO-31
  GI50: > 100 µM (inactive)

## COc1ccc(C(c2ccccc2)(c2ccc(OC)cc2)N2C(=O)NC3C(CCCCC(=O)NCCCCCCOP(OCCC#N)N(C(C)C)C(C)C)SCC32)cc1 (stereo unspecified)
A549
  GI50: 20.3 µM (inactive)
ACHN
  GI50: 16.3 µM (inactive)
EKVX
  GI50: 21.5 µM (inactive)
HCC 2998
  GI50: 16.6 µM (inactive)
HL-60
  GI50: 12.1 µM (inactive)
HOP-92
  GI50: 19.5 µM (inactive)
K562
  GI50: 7.62 µM (inactive)
LOX IMVI
  GI50: 11.8 µM (inactive)
NCI-H460
  GI50: 16.8 µM (inactive)
NCI-H522
  GI50: 12.7 µM (inactive)
OVCAR-5
  GI50: > 10 µM (inactive)
OVCAR-8
  GI50: 29.2 µM (inactive)
SK-MEL-28
  GI50: 15 µM (inactive)
SK-MEL-2
  GI50: 11.6 µM (inactive)
SK-OV-3
  GI50: > 10 µM (inactive)
TK-10
  GI50: 18 µM (inactive)
UACC-257
  GI50: 19.3 µM (inactive)
UO-31
  GI50: 14.3 µM (inactive)

## Cn1cc2ccccc2c1-c1nc(F)nc(Nc2ccc(N)cc2)n1
A549
  GI50: 18.1 µM (inactive)
ACHN
  GI50: 23.3 µM (inactive)
EKVX
  GI50: 23.3 µM (inactive)
HCC 2998
  GI50: 18 µM (inactive)
HL-60
  GI50: 22.3 µM (inactive)
HOP-92
  GI50: 15.1 µM (inactive)
K562
  GI50: 8.63 µM (inactive)
LOX IMVI
  GI50: 12.4 µM (inactive)
NCI-H460
  GI50: 13.5 µM (inactive)
NCI-H522
  GI50: 14.4 µM (inactive)
OVCAR-5
  GI50: 26.4 µM (inactive)
OVCAR-8
  GI50: 21 µM (inactive)
SK-MEL-28
  GI50: 15.5 µM (inactive)
SK-MEL-2
  GI50: 13.3 µM (inactive)
SK-OV-3
  GI50: 11.6 µM (inactive)
TK-10
  GI50: 34.3 µM (inactive)
UACC-257
  GI50: 17.3 µM (inactive)
UO-31
  GI50: 17.3 µM (inactive)

## COc1cccc2c1C(=O)c1c(O)c3c(c(O)c1C2=O)C[C@](O)(C(=O)CO)CC3OC1CC(N)C(OC2CCCCO2)C(C)O1 (stereo partly specified)
A549
  GI50: < 0.01 µM (active)
EKVX
  GI50: 0.916 µM (active)
HCC 2998
  GI50: 0.621 µM (active)
HL-60
  GI50: < 0.01 µM (active)
HOP-92
  GI50: 0.239 µM (active)
K562
  GI50: 0.188 µM (active)
LOX IMVI
  GI50: 0.232 µM (active)
NCI-H460
  GI50: < 0.01 µM (active)
NCI-H522
  GI50: 0.356 µM (active)
OVCAR-5
  GI50: 0.293 µM (active)
OVCAR-8
  GI50: 0.267 µM (active)
SK-MEL-28
  GI50: 1.4 µM (inactive)
SK-MEL-2
  GI50: 1.05 µM (active)
SK-OV-3
  GI50: 0.531 µM (active)
UACC-257
  GI50: 0.995 µM (active)
UO-31
  GI50: 1.48 µM (inactive)

## CN(C)c1ccc(C(=C2C=CC(=[N+](C)C)C=C2)c2ccc(N(C)C)cc2)cc1 [GENTIAN VIOLET]
A549
  GI50: 0.0395 µM (active)
ACHN
  GI50: 0.175 µM (active)
EKVX
  GI50: 0.368 µM (active)
HCC 2998
  GI50: 0.216 µM (active)
HL-60
  GI50: 0.04 µM (active)
HOP-92
  GI50: 0.196 µM (active)
K562
  GI50: 0.0327 µM (active)
LOX IMVI
  GI50: 0.0379 µM (active)
NCI-H460
  GI50: 0.0574 µM (active)
NCI-H522
  GI50: 0.298 µM (active)
OVCAR-5
  GI50: 0.202 µM (active)
SK-MEL-28
  GI50: 0.53 µM (active)
SK-MEL-2
  GI50: 0.207 µM (active)
SK-OV-3
  GI50: 0.224 µM (active)
UACC-257
  GI50: 0.176 µM (active)
UO-31
  GI50: 0.318 µM (active)
